Measurements published in ChEMBL document CHEMBL2169792, “Synthesis of new 4-thiazolidinone-, pyrazoline-, and isatin-based conjugates with promising antitumor activity” (J Med Chem, 2012).
Calls of active or inactive are those of the source. The rule behind the calls is not given here.

What was measured:
NCI-H522 = assay: Cytotoxicity against human NCI-H522 cells assessed as cell growth at 10 uM after 48 hrs by SRB assay; format: functional; settings: NCI-H522, 48 h, read-out: Activity
[1] = Toxicity in mouse; format: organism-based; settings: in vivo
[2] = Cytotoxicity against human non-small cell lung cancer cells after 48 hrs by SRB assay; format: functional; settings: Cancer cell lines; for CC50: read-out: LC50 (the source's name)
[3] = Cytotoxicity against human prostate cancer cells after 48 hrs by SRB assay; format: functional; settings: Cancer cell lines
[4] = Cytotoxicity against human breast cancer cells after 48 hrs by SRB assay; format: functional; settings: Cancer cell lines
[5] = Cytotoxicity against human renal cancer cells after 48 hrs by SRB assay; format: functional; settings: Cancer cell lines
[6] = Cytotoxicity against human melanoma cells after 48 hrs by SRB assay; format: functional; settings: Melanoma cell; for CC50: read-out: LC50 (the source's name)
[7] = Cytotoxicity against human ovarian cancer cells after 48 hrs by SRB assay; format: functional; settings: Cancer cell lines
[8] = Cytotoxicity against human CNS cancer cells after 48 hrs by SRB assay; format: functional; settings: Cancer cell lines
[9] = Cytotoxicity against human colon cancer cells after 48 hrs by SRB assay; format: functional; settings: Cancer cell lines
[10] = Cytotoxicity against human leukemia cells after 48 hrs by SRB assay; format: functional; settings: Leukemia cell; for CC50: read-out: LC50 (the source's name)
U-251 = assay: Cytotoxicity against human U251 cells assessed as cell growth at 10 uM after 48 hrs by SRB assay; format: functional; settings: U-251, 48 h, read-out: Activity
Mus musculus = assay: Antitumor activity in ip dosed athymic nude mouse hollow fiber model assessed as reduction of viable cell mass; format: functional, organism-based
CCRF-CEM = assay: Cytotoxicity against human CCRF-CEM cells assessed as cell growth at 10 uM after 48 hrs by SRB assay; format: functional; settings: read-out: Activity

| Compound | GI50 [2] [nM] | TGI [2] [nM] | CC50 [2] [nM] | GI50 [3] [nM] | LC50 [3] [nM] | GI50 [4] [nM] | LC50 (concentration causing 50% net cell kill) [4] [nM] | TGI [4] [nM] | GI50 [5] [nM] | LC50 [5] [nM] | TGI [5] [nM] | GI50 [6] [nM] | TGI [6] [nM] | CC50 [6] [nM] | GI50 [7] [nM] | LC50 (concentration causing 50% net cell kill) [7] [nM] | GI50 [8] [nM] | LC50 (concentration giving 50% net cell kill) [8] [nM] | TGI [8] [nM] | GI50 [9] [nM] | further results |
| --- | --- | --- | --- | --- | --- | --- | --- | --- | --- | --- | --- | --- | --- | --- | --- | --- | --- | --- | --- | --- | --- |
| O=C1Nc2ccccc2C1n1nc(-c2ccccc2)cc1-c1ccc(Cl)cc1 (centres undefined) |  |  |  |  |  |  |  |  |  |  |  |  |  |  |  |  |  |  |  |  | growth at 10 µM (NCI-H522): 76.6% |
| CN(C)c1ccc(C2CC(c3ccccc3)=NN2C2=NC(=O)/C(=C3\C(=O)Nc4ccccc43)S2)cc1 (centres undefined) | 7420 | 25200 | 49000 | 270 | 41400 | 5260 | 57300 | 20200 | 6370 | 43000 | 18800 | 6900 | 29400 | 43900 | 1220 | 47100 | 1110 | 41600 | 3240 | 2550 | MTD [1]: > 400 mg/kg; TGI [3]: 34000 nM; TGI [7]: 39700 nM; LC50 (concentration lethal to 50% of cells) [9]: 40400 nM; TGI [9]: 35300 nM; GI50 [10]: 33900 nM; TGI [10]: 45600 nM; CC50 [10]: 94800 nM; growth at 10 µM (U-251): -39.6%; Activity (Mus musculus): inactive |
| COc1ccc(C2=NN(C3=NC(=O)/C(=C4\C(=O)Nc5ccc(Cl)cc54)S3)C(c3ccc(OC)cc3)C2)cc1 (centres undefined) | 200 | 440 | 64200 | 250 | 100000 | 220 | 75200 | 500 | 190 | 50500 | 390 | 190 | 380 | 33900 | 230 | 83400 | 200 | 35500 | 420 | 210 | TGI [3]: 710 nM; TGI [7]: 21200 nM; LC50 (concentration lethal to 50% of cells) [9]: 58700 nM; TGI [9]: 430 nM; GI50 [10]: 280 nM; TGI [10]: 75200 nM; CC50 [10]: 100000 nM; growth at 10 µM (NCI-H522): 0.8% |
| CN(C)c1ccc(C2CC(c3ccccc3)=NN2C2=NC(=O)/C(=C3\C(=O)Nc4ccc(Br)cc43)S2)cc1 (centres undefined) | 220 | 540 | 17000 | 270 | 55300 | 220 | 18700 | 510 | 200 | 7470 | 450 | 200 | 460 | 7650 | 250 | 39600 | 210 | 12300 | 450 | 200 | TGI [3]: 720 nM; TGI [7]: 690 nM; LC50 (concentration lethal to 50% of cells) [9]: 1220 nM; TGI [9]: 420 nM; GI50 [10]: 310 nM; TGI [10]: 1290 nM; CC50 [10]: 84800 nM; growth at 10 µM (U-251): -51.1% |
| Cc1ccc2c(c1)/C(=C1\SC(N3N=C(c4ccccc4)CC3c3ccc(Cl)cc3)=NC1=O)C(=O)N2 (centres undefined) | 210 | 620 | 100000 | 310 | 100000 | 800 | 100000 | 100000 | 240 | 100000 | 520 | 300 | 670 | 100000 | 260 | 100000 | 240 | 75200 | 320 | 230 | LC50 (concentration lethal to 50% of cells) [9]: 100000 nM; TGI [9]: 350 nM; GI50 [10]: 390 nM; TGI [10]: 39400 nM; CC50 [10]: 85200 nM; growth at 10 µM (U-251): -54% |
| COc1ccc(-c2cc(-c3ccc(OC)cc3)n(C3C(=O)Nc4ccc(Cl)cc43)n2)cc1 (centres undefined) |  |  |  |  |  |  |  |  |  |  |  |  |  |  |  |  |  |  |  |  | growth at 10 µM (NCI-H522): 82% |
| COc1ccc(C2=NN(C3=NC(=O)/C(=C4\C(=O)Nc5ccc(Cl)cc54)S3)C(c3ccc(Cl)cc3)C2)cc1 (centres undefined) | 200 | 460 | 7930 | 270 | 76200 | 200 | 25700 | 470 | 200 | 13800 | 460 | 200 | 440 | 1210 | 270 | 31300 | 190 | 12700 | 430 | 210 | TGI [3]: 740 nM; TGI [7]: 7970 nM; LC50 (concentration lethal to 50% of cells) [9]: 8200 nM; TGI [9]: 450 nM; GI50 [10]: 270 nM; TGI [10]: 890 nM; CC50 [10]: 91100 nM; growth at 10 µM (U-251): -58% |
| COc1ccc(-c2cc(-c3ccc(Cl)cc3)n(C3C(=O)Nc4ccccc43)n2)cc1 (centres undefined) |  |  |  |  |  |  |  |  |  |  |  |  |  |  |  |  |  |  |  |  | growth at 10 µM (CCRF-CEM): 75.6% |
| COc1ccc(-c2cc(-c3ccc(OC)cc3)n(C3C(=O)Nc4ccc(Br)cc43)n2)cc1 (centres undefined) |  |  |  |  |  |  |  |  |  |  |  |  |  |  |  |  |  |  |  |  | growth at 10 µM (NCI-H522): 88.6% |
